Values of other authors, collected in patent US11583515B2, “Composition and method for rapidly inducing an endogenous ketosis” (priority 2015, dated 2023).
Each block holds one molecule with its values, some of them ahead of it.

Key:
[1] = system: insulin signaling cascade; details: 600, 1200, and 1800 mg daily for four weeks; individuals with impaired insulin signaling cascades
[2] = racemic mixture of R and S enantiomers, taken orally
muscle cells = details: with and without the presence of insulin or exercise
[3] = in vivo

effect on mother or child (2014 study, treating peripheral neuropathy during pregnancy): no harmful effect | bioavailability after absorption [2]: ~30% | complete plasma clearance [2]: approximately three hours | half-life [2]: thirty minutes to one and one half hours
Molecule: O=C(O)CCCCC1CCSS1 (racemic) [Alpha Lipoic acid, 1,2-dithiolane-3-pentanoic acid]
improvement of effectiveness of the signaling cascade on glucose uptake and utilization [1]: 25% | safety of supplementation (animal or human studies, various ranges of intake, large doses or extended use): safe with no widespread serious or life-threatening reactions reported

Molecule: [Cr] [Chromium]
doses used without any reported adverse effects (chromium containing supplements): up to 1000 mcg | rate of cellular glucose uptake (muscle cells): several times normal | absorption, share of an ingested dose [3]: 1-2% | complete plasma clearance half-life [3]: 8 to 12 h

blood level of beta-hydroxybutyrate, acetoacetate, and acetone (Dawley rats; supplementation): increases
Molecule: beta-hydroxybutyrate salts
effect on triglycerides or total cholesterol (Dawley rats; after four weeks of repeated daily ingestion): no effect | effect on blood glucose numbers (Dawley rats; orally supplemented, 28 days): improved | effect to promote weight loss (Dawley rats; orally supplemented, 28 days): no effect
